Reference: the NIST ThermoML archive (doi:10.1016/j.jct.2012.05.021)
± gives the expanded uncertainty stated by the source.

Conditions: Crystal; visual observation

SMILES	Normal melting temperature [°C]
CC(C)NCC(O)COc1ccc(CC(N)=O)cc1 (configuration not stated) [2-(4-(2-hydroxy-3-(isopropylamino)propoxy)phenyl)acetamide]	154.50 ± 0.4
CC(C)NCC(O)COc1cccc2ccccc12.Cl (configuration not stated) [propranolol hydrochloride]	164.80 ± 0.4
